According to patent US20220306737A1, “USE OF HIGH-AFFINITY, LIGAND-BLOCKING, HUMANIZED ANTI-T-CELL IMMUNOGLOBULIN DOMAIN AND MUCIN DOMAIN-3 (TIM-3) IGG4 ANTIBODY FOR THE TREATMENT OF MYELOFIBROSIS” (Novartis AG, priority 2019, published 2022):
Entries after “also recorded” stand apart in the source; their conditions may differ.

Legend:
[1] = system: broad panel of 26 kinases; conditions: tested at 200 nM; cited from earlier work
JAK3 = JAK3 (Homo sapiens, UniProt P52333); conditions: at clinically relevant concentrations; cited from earlier work
JAK3, sequence (P52333 whole entry, species assumed): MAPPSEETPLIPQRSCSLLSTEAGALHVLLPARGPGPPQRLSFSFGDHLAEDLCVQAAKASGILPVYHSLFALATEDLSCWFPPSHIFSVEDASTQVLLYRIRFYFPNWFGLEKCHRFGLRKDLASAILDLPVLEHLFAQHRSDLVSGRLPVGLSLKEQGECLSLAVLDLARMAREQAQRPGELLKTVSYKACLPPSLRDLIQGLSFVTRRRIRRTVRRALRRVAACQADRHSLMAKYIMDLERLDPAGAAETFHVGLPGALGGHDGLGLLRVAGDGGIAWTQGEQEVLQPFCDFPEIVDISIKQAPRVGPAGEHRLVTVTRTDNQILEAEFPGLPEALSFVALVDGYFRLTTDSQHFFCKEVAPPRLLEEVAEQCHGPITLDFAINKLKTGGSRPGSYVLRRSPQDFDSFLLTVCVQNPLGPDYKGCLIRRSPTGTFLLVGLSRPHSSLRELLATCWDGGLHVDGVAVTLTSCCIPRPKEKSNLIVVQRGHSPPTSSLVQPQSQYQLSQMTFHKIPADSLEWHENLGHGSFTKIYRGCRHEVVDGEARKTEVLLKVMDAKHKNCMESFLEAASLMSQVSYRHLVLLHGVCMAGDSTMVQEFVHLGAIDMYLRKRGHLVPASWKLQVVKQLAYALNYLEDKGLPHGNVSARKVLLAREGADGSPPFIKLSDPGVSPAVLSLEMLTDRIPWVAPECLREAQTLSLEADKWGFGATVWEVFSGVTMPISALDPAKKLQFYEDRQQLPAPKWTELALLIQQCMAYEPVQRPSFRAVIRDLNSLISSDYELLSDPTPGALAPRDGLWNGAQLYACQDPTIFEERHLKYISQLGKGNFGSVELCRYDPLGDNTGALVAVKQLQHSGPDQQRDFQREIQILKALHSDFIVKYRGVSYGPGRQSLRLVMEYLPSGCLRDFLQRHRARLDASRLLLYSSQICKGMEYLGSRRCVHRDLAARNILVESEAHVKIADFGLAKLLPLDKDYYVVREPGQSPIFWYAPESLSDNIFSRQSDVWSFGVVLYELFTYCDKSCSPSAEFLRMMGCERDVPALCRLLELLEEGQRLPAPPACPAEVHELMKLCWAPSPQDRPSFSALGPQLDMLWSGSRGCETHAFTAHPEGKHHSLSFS

[2] = cited from earlier work
[3] = CMBG453X2101 clinical study in advanced solid tumors, safety; format: in vivo, human; conditions: any dose up to 1200 mg IV Q2W or Q4W
Protocol: (§1) In this study, the selection of the MBG453 dose and regimen is based on the currently available clinical safety, efficacy, PK and PK/PD modeling information from the CMBG453X2101 in advanced solid tumors and CPDR001X2105 in AML and MDS trials for MBG453. For solid tumor subjects, both 800 mg IV Q4W and 400 mg IV every 2 weeks (Q2W) are predicted to give sustained target (TIM-3) occupancy of 90% in tumor in >90% of subjects. […] MBG453 single agent is also being evaluated in AML/MDS subjects in the CPDR001X2105 study with Q4W and Q2W regimens. The recommended dose in AML/MDS has not yet been determined, however it is not expected to be different from solid tumors, based on preliminary PK and safety data.

[4] = MBG453 phase I/II development, impact on hematopoiesis; format: in vivo, human
[5] = CPDR001X2105 clinical study in AML/MDS subjects, tolerability; format: in vivo, human; conditions: 400 mg IV Q2W and 800 mg IV Q4W
Protocol: as §1

Compound	inhibition of a broad panel of 26 kinases [1]	inhibition of JAK3 (JAK3)	effect on anemia ([2]; MF patients)	effect on splenomegaly (spleen size) and constitutional symptoms of MF ([2]; MF patients)	hematoxicity ([2]; human, in vivo)	safety signal [3]	impact on hematopoiesis [4]	tolerability [5]
N#CC[C@H](C1CCCC1)n1cc(-c2ncnc3[nH]ccc23)cn1 [Ruxolitinib, (R)-3-(4-(7H-pyrrolo[2,3-d]pyrimidin-4-yl)-1H-pyrazol-1-yl)-3-cyclopentylpropanenitrile]	< 30%	does not inhibit	does not improve	highly effective; also recorded: improvements	partial transient hematoxicity			
MBG453: anti-TIM-3 antibody disclosed in US Patent Application Publication No. 2015/0218274						No significant safety signal	has not been found to have a negative impact on hematopoiesis	well tolerated
